From patent US20230271950A1, “ANTIBACTERIAL PICOLINAMIDE COMPOUNDS” (University of Notre Dame Du Lac, priority 2020, published 2023)
Like-named read-outs stand apart in the source and are kept apart here.

Legend:
[1] = system: Fecal microbiota preparation; test: MIC against fecal microbiota preparation; assay type: cell-based; conditions: Fecal microbiota preparation from OpenBiome tested at 1000-fold dilution
Experimental: Minimum inhibitory concentrations (MIC). MICs for C. difficile strains and the common gut bacteria were determined using broth microdilution techniques as reported earlier using brucella broth supplemented with hemin and vitamin K or supplemented BHIS broth. Lactobacillus MRS broth was used for lactobacillus strains. Sodium lactate was supplemented in the media for Veillonella sp. […] All incubations, unless specified otherwise, were carried out at 24 h or 48 h at 37° C. in an anaerobic chamber (Whitley DG250 workstation, Microbiology International, Frederick, Md.). Corynebacterium and Lactobacillus species were incubated aerobically.

MRSA (NRS70, NRS119) = test: MIC against MRSA strains; assay type: cell-based, Staphylococcus aureus
Eubacterium sp. = test: MIC against gut bacterium Eubacterium sp.; assay type: cell-based; conditions: Eubacterium sp. strain HM-178
Veillonella sp. HM-49 = test: MIC against gut bacterium Veillonella sp.; assay type: cell-based
Bifidobacterium longum = test: MIC against gut bacterium Bifidobacterium longum; assay type: cell-based; conditions: Bifidobacterium longum strain HM-846
Fusobacterium nucleatum = test: MIC against gut bacterium Fusobacterium nucleatum; assay type: cell-based; conditions: Fusobacterium nucleatum strain HM-992
Lactobacillus gasseri = test: MIC against gut bacterium Lactobacillus gasseri; assay type: cell-based
S. aureus ATCC29213 = test: MIC against MSSA; assay type: cell-based, Staphylococcus aureus; conditions: Staphylococcus aureus; S. aureus ATCC29213; Table 1; read-out: MIC
Bacteroides fragilis = test: MIC against gut bacterium Bacteroides fragilis; assay type: cell-based; conditions: Bacteroides fragilis strain HM-709
C. difficile = test: MIC by broth microdilution against C. difficile strains; assay type: cell-based, Clostridioides difficile; conditions: Clostridioides difficile; for MIC: read-out: MIC
Lactobacillus reuteri = test: MIC against gut bacterium Lactobacillus reuteri; assay type: cell-based
Corynebacterium spp. = test: MIC against gut bacterium Corynebacterium spp.; assay type: cell-based; conditions: Corynebacterium spp. strain HM-784; Table 1

CN[C@H](CC(C)C)C(=O)N[C@H]1C(=O)N[C@@H](CC(N)=O)C(=O)N[C@H]2C(=O)N[C@H]3C(=O)N[C@H](C(=O)N[C@H](C(=O)O)c4cc(O)cc(O)c4-c4cc3ccc4O)[C@H](O)c3ccc(c(Cl)c3)Oc3cc2cc(c3O[C@@H]2O[C@H](CO)[C@@H](O)[C@H](O)[C@H]2O[C@H]2C[C@](C)(N)[C@H](O)[C@H](C)O2)Oc2ccc(cc2Cl)[C@H]1O [VAN, vancomycin, reference compound]
2 µg/mL: MIC (MRSA (NRS70, NRS119); MRSA NRS70, Table 7) | MIC (MRSA (NRS70, NRS119); MRSA NRS119, Table 1) | MIC (MRSA (NRS70, NRS119); Staphylococcus aureus, MRSA NRS70, Table 1, read-out: MIC) | MIC (Eubacterium sp.; Table 1, read-out: MIC) | MIC (Eubacterium sp.; Table 7) | MIC (C. difficile; BAA1803, C. difficile BAA-1803, Table 7) | MIC (C. difficile; BAA1803, C. difficile BAA-1803, Table 9) | MIC (C. difficile; BAA1870, C. difficile BAA-1870 (NAP1, ribotype 27), Table 1) | MIC (C. difficile; BAA1870, C. difficile BAA-1870, Table 7) | MIC (C. difficile; BAA1870, C. difficile BAA-1870, Table 9) | MIC (C. difficile; C. difficile 23828 (FR, fidaxomicin-resistant), Table 7) | MIC (C. difficile; C. difficile 23828, clinical isolate resistant to FDX, Table 1) | MIC (C. difficile; C. difficile 23828, Table 9) | MIC (C. difficile; C. difficile NR-13428, Table 9) | MIC (C. difficile; C. difficile NR-32889, Table 9) | MIC (C. difficile; C. difficile NR-32890, Table 9) | MIC (C. difficile; C. difficile NR-32895, Table 9) | MIC (C. difficile; C. difficile NR-32896, Table 9) | MIC90 (C. difficile; read-out: MIC90 (101 strains))
> 128 µg/mL: MIC [1]
4 µg/mL: MIC (C. difficile; C. difficile 23691 (VR, vancomycin-resistant), Table 7) | MIC (C. difficile; C. difficile 23691, clinical isolate resistant to VAN, Table 1) | MIC (C. difficile; C. difficile 23691, Table 9) | MIC (C. difficile; C. difficile 24531 (VR, vancomycin-resistant), Table 7) | MIC (C. difficile; C. difficile 24531, Table 9)
0.25 µg/mL: MIC (Bifidobacterium longum; Table 1, read-out: MIC) | MIC (Bifidobacterium longum; Table 7) | MIC (Fusobacterium nucleatum; Table 1, read-out: MIC) | MIC (Fusobacterium nucleatum; Table 7) | MIC (C. difficile; BAA1801, C. difficile BAA-1801, Table 7) | MIC (C. difficile; BAA1801, C. difficile BAA-1801, Table 9) | MIC (C. difficile; C. difficile HM-89, Table 9) | MIC (C. difficile; C. difficile NR49292, Table 7) | MIC (C. difficile; C. difficile NR49292, Table 9) | MIC (C. difficile; C. difficile NR49294, Table 7) | MIC (C. difficile; C. difficile NR49294, Table 9) | MIC (C. difficile; C. difficile NR49318, Table 7) | MIC (C. difficile; C. difficile NR49318, Table 9) | MIC (C. difficile; C. difficile NR-13431, Table 9) | MIC (C. difficile; C. difficile NR-32897, Table 9) | MIC (C. difficile; C. difficile NR-32904, Table 9) | MIC (C. difficile; C. difficile NR-49285, Table 9) | MIC (C. difficile; C. difficile NR-49321, Table 9) | MIC (C. difficile; C. difficile NR-49328, Table 9) | MIC (C. difficile; C. difficile NR-49329, Table 9) | MIC (Corynebacterium spp.)
8 µg/mL: MIC (C. difficile; C. difficile 24923 (VR, vancomycin-resistant), Table 7) | MIC (C. difficile; C. difficile 24923, Table 9)
> 32 µg/mL: MIC (Veillonella sp. HM-49; SP.HM49, Veillonella sp. HM-49, Table 1, read-out: MIC) | MIC (Lactobacillus reuteri; Limosilactobacillus reuteri, Lactobacillus reuter strain HM-102, Table 1, read-out: MIC)
>32 µg/mL: MIC (Veillonella sp. HM-49; Veillonella sp. strain HM-49, Table 7) | MIC (Lactobacillus reuteri; Lactobacillus reuteri strain HM-102, Table 7)
1 µg/mL: MIC (Lactobacillus gasseri; Lactobacillus gasseri strain HM-644, Table 7) | MIC (Lactobacillus gasseri; Lactobacillus gasseri, Lactobacillus gasser strain HM-644, Table 1, read-out: MIC) | MIC (S. aureus ATCC29213) | MIC (C. difficile; ATCC43598, C. difficile ATCC43598, Table 7) | MIC (C. difficile; ATCC43598, C. difficile ATCC43598, Table 9) | MIC (C. difficile; BAA1804, C. difficile BAA-1804, Table 7) | MIC (C. difficile; BAA1804, C. difficile BAA-1804, Table 9) | MIC (C. difficile; C. difficile 26675 (MR, metronidazole-resistant), Table 7) | MIC (C. difficile; C. difficile 26675, clinical isolate resistant to MTZ, Table 1) | MIC (C. difficile; C. difficile 26675, Table 9) | MIC (C. difficile; C. difficile 27081 (FR, fidaxomicin-resistant), Table 7) | MIC (C. difficile; C. difficile 27081, Table 9) | MIC (C. difficile; C. difficile NR-13427, Table 9) | MIC (C. difficile; C. difficile NR-13433, Table 9) | MIC (C. difficile; C. difficile NR-32885, Table 9) | MIC (C. difficile; C. difficile NR-32891, Table 9) | MIC (C. difficile; C. difficile NR-32900, Table 9) | MIC (C. difficile; C. difficile NR-49280, Table 9) | MIC (C. difficile; C. difficile NR-49291, Table 9) | MIC (C. difficile; C. difficile NR-49298, Table 9) | MIC (C. difficile; C. difficile NR-49306, Table 9) | MIC (C. difficile; C. difficile NR-49307, Table 9) | MIC (C. difficile; C. difficile NR-49309, Table 9) | MIC (C. difficile; C. difficile NR-49320, Table 9)
16 µg/mL: MIC (Bacteroides fragilis; Table 1, read-out: MIC) | MIC (Bacteroides fragilis; Table 7)
